From publication PMC3199943, “Screening the MayBridge Rule of 3 Fragment Library for Compounds That Interact with the Trypanosoma brucei myo-Inositol-3-Phosphate Synthase and/or Show Trypanocidal Activity” (Molecular Biology International, 2011)
Where two headings read alike, the source gives them in different places.

How the values were obtained:
[1] = target: T1, TbINO1 (Trypanosoma brucei brucei, UniProt Q5QQ46); experiment: biochemical; assay type: binding
T1 sequence (Q5QQ46 1-528): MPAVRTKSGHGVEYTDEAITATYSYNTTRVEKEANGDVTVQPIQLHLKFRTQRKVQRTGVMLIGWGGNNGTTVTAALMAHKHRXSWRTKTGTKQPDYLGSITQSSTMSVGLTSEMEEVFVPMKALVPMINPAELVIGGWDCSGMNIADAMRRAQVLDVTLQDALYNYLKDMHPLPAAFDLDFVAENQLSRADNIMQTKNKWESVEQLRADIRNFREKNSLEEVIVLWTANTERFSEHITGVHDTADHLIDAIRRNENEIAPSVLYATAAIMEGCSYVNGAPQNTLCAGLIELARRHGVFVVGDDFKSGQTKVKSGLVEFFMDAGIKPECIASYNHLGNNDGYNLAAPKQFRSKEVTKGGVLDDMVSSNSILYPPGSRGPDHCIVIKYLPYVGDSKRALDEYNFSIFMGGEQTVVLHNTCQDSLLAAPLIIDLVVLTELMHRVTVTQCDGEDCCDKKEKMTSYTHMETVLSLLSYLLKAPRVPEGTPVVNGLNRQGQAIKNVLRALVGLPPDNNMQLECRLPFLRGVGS

[2] = tested on: HeLa cells; experiment: cells; details: for viability at 500 µM: 65 h; for HeLa Cells Alamar Blue: Supplementary Table 1, compound 0.5 mM, percentage of controls, mean ± SD (n=3) or SE (n=2)
Method in brief: (§1)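 Viability by Alamar Blue (5 h) after ~65 h drug treatment; seeding density 2 × 10^4 cells/well in DMEM supplemented with 10% FCS and 2 mM L-Glutamine.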

[3] = tested on: A549 cells; experiment: Cytotoxicity against A549 cells, Alamar Blue; assay type: cell-based; details: Supplementary Table 1, compound 0.5 mM, percentage of controls (n=1); for viability at 500 µM: Homo sapiens, A549, 65 h
Method in brief: as §1

[4] = read-out: Tb Ino1 Tm Shift [˚C]
[5] = Homo sapiens, HeLa, read-out: HeLa Cells Alamar Blue
[6] = Supplementary Table 1, compound 1mM, mean ± SD from Boltzman curve fitting
[7] = Homo sapiens, HeLa, read-out: HeLa Cells Alamar Blue (% survival)

| SMILES | ΔTm at 1000 µM [1, 4] [°C] | viability at 500 µM [2, 5] [%] | viability at 500 µM [3] [%] | also measured |
| --- | --- | --- | --- | --- |
| NC(=S)C1=Cc2ccccc2OC1 [compound 558, 2H‐chromene‐3‐carbothioamide] | 0.05 ± 0.09 | 80.8 ± 8.8 | 98.1 |  |
| OCc1ccc(CN2CCCC2)cc1 [compound 559, [4‐(pyrrolidin‐1‐ylmethyl)phenyl]methanol] |  |  |  | Tb Ino1 Tm Shift [˚C] [1, 6]: 0.05 ± 0.08 °C; HeLa Cells Alamar Blue [2]: 91.7 ± 15.8 percentage of controls; A549 Cells Alamar Blue [3]: 110 percentage of controls |
| CN1CCN(c2ccccc2N)CC1 [compound 561, 2‐(4‐methylpiperazin‐1‐yl)aniline] |  | 74.3 ± 11.7 | 101 | ΔTm at 1000 µM ([1]; Supplementary Table 1, compound 1mM, mean ± SD from Boltzman curve fitting, read-out: Tb Ino1 Tm Shift [˚C]): 0.46 ± 0.07 °C |
| OCc1ccc(OC(F)(F)F)cc1 [compound 563, [4‐(trifluoromethoxy)phenyl]methanol] | 0.01 ± 0.07 | 94.5 ± 8.3 | 92.9 |  |
| CC1(C)Cc2cccc(C(=O)O)c2O1 [compound 564, 2,2‐dimethyl‐2,3‐dihydro‐1‐benzofuran‐7‐carboxylic acid] |  |  |  | Tb Ino1 Tm Shift [˚C] [1, 6]: 0.35 ± 0.07 °C; HeLa Cells Alamar Blue [2]: 91.1 ± 19 percentage of controls; A549 Cells Alamar Blue [3]: 101.2 percentage of controls |
| OCc1csc(-c2cccnc2)n1 [compound 566, (2‐pyridin‐3‐yl‐1,3‐thiazol‐4‐yl)methanol] | 0.29 ± 0.07 | 88.4 ± 18.2 | 104 |  |
| Nc1ccc(CN2CCOCC2)cc1 [compound 567, 4‐(morpholinomethyl)aniline] | 0.61 ± 0.05 | 90.1 ± 15.9 | 103 |  |
| OCc1ccnc(N2CCCCC2)c1 [compound 568, (2‐piperidinopyrid‐4‐yl)methanol] | 0.03 ± 0.07 | 94.5 ± 18.7 | 103 |  |
| Nc1ccccc1CN1CCOCC1 [compound 570, 2‐(morpholin‐4‐ylmethyl)aniline] | 0.35 ± 0.05 | 93.2 ± 17.1 | 104 |  |
| NCc1ccccc1N1CCOCC1 [compound 571, 2‐morpholinobenzylamine] | 0.06 ± 0.07 | 95 ± 17.5 | 70.9 |  |
| OCc1cccnc1N1CCCCC1 [compound 572, (2‐piperidino‐3‐pyridinyl)methanol] | 1.25 ± 0.09 | 65.1 ± 5.7 | 80.1 |  |
| c1ccc(Sc2ccsc2)cc1 [compound 574, 3‐(phenylthio)thiophene] | 0.11 ± 0.07 | 98.8 ± 18.5 | 93.9 |  |
| COc1c(C(=O)O)csc1Cl [compound 575, 5‐chloro‐4‐methoxythiophene‐3‐carboxylic acid] |  |  |  | Tb Ino1 Tm Shift [˚C] [1, 6]: 1.07 ± 0.08 °C; HeLa Cells Alamar Blue [2]: 90.5 ± 15.4 percentage of controls; A549 Cells Alamar Blue [3]: 91.2 percentage of controls |
| O=C(O)c1sccc1-n1cccc1 [compound 577, 3-(1H-pyrrol-1-yl)thiophene-2-carboxylic acid] |  | 103 ± 2.8 | 90.4 | ΔTm at 1000 µM ([1]; read-out: TbIno1 Tm shift [°C]): 2.78 ± 0.08 °C; viability at 500 µM [2, 7]: 103 ± 2.8%; CC50 ([2]; Homo sapiens, HeLa, read-out: HeLa ED50): > 20 mM |
| OCc1ccc(N2CCOCC2)cc1 [compound 578, (4‐morpholin‐4‐yl‐phenyl)‐methanol] | 0.17 ± 0.08 | 42.3 ± 9 | 75.4 |  |
| OCc1cccc(N2CCOCC2)c1 [compound 579, (3‐morpholinophenyl)methanol] | 0.18 ± 0.08 | 100 ± 13.5 | 101 |  |
| OCc1ccccc1N1CCOCC1 [compound 580, (2‐morpholinophenyl)methanol] | 0.34 ± 0.06 | 91.3 ± 16 | 123 |  |
| CN1CCc2c(sc(N)c2C#N)C1 [compound 581, 2‐amino‐6‐methyl‐4,5,6,7‐tetrahydrothieno[2,3‐c]pyridine‐3‐carbonitrile] |  |  |  | Tb Ino1 Tm Shift [˚C] [1, 6]: 1.39 ± 0.08 °C; HeLa Cells Alamar Blue [2]: 85.8 ± 12.8 percentage of controls; A549 Cells Alamar Blue [3]: 82.2 percentage of controls |
| Cc1cc(C(=O)O)c(C(F)(F)F)o1 [compound 583, 5‐methyl‐2‐(trifluoromethyl)‐3‐furoic acid] | 0.06 ± 0.07 | 86.1 ± 15.8 | 59.6 |  |
| Cn1nc(-c2cccs2)cc1CO [compound 587, (1‐methyl‐3‐thien‐2‐yl‐1H‐pyrazol‐5‐yl)methanol] |  |  |  | Tb Ino1 Tm Shift [˚C] [1, 6]: 0.36 ± 0.07 °C; HeLa Cells Alamar Blue [2]: 91.6 ± 8.8 percentage of controls; A549 Cells Alamar Blue [3]: 65.8 percentage of controls |

| SMILES | ΔTm at 1000 µM [1, 4] [°C] | viability at 500 µM [2, 5] [%] | viability at 500 µM [3] [%] | also measured |
| --- | --- | --- | --- | --- |
| CC(=O)c1cc(Cl)sc1Cl [compound 590, 1‐(2,5‐dichloro‐3‐thienyl)ethan‐1‐one] | 0.3 ± 0.07 | 97.7 ± 13.9 | 130 |  |
| N#Cc1ccccc1Oc1ccccc1 [compound 591, 2‐phenoxybenzonitrile] | 0.24 ± 0.06 | 93 ± 2.5 | 58.3 |  |
| NC(=S)c1cccc2c1OCCO2 [compound 592, 2,3‐dihydro‐1,4‐benzodioxine‐5‐carbothioamide] |  |  |  | Tb Ino1 Tm Shift [˚C] [1, 6]: 0.18 ± 0.07 °C; HeLa Cells Alamar Blue [2]: 54.3 ± 15.7 percentage of controls; A549 Cells Alamar Blue [3]: 39.8 percentage of controls |
| CN(C)CCOc1ccccc1CO [compound 593, {2‐[2‐(dimethylamino)ethoxy]phenyl}methanol] |  |  |  | Tb Ino1 Tm Shift [˚C] [1, 6]: 0.13 ± 0.06 °C; HeLa Cells Alamar Blue [2]: 77.9 ± 13.5 percentage of controls; A549 Cells Alamar Blue [3]: 59.2 percentage of controls |
| CCOC(=O)c1[nH]c(C)c(CC)c1C [compound 594, ethyl 4‐ethyl‐3,5‐dimethyl‐1H‐pyrrole‐2‐carboxylate] |  |  |  | Tb Ino1 Tm Shift [˚C] [1, 6]: 0.17 ± 0.08 °C; HeLa Cells Alamar Blue [2]: 79.8 ± 6.6 percentage of controls; A549 Cells Alamar Blue [3]: 59.9 percentage of controls |
| N#Cc1ccc(Oc2ccccn2)cc1 [compound 596, 4‐(pyridin‐2‐yloxy)benzonitrile] | 0.68 ± 0.07 | 97.7 ± 11 | 72.1 |  |
| O=C(O)C12CC3CC(CC(O)(C3)C1)C2 [compound 597, 3‐hydroxyadamantane‐1‐carboxylic acid] | 0.29 ± 0.06 | 75.2 ± 12.6 | 79.4 |  |
| OCc1ccc(-c2cccs2)s1 [compound 598, 2,2′-bithien-5-ylmethanol] |  | 78 ± 11.6 | 86.3 | ΔTm at 1000 µM ([1]; read-out: TbIno1 Tm shift [°C]): 1.72 ± 0.06 °C; viability at 500 µM [2, 7]: 78 ± 11.6% |
| NCc1csc(-c2cccs2)n1 [compound 599, [2‐(2‐thienyl)‐1,3‐thiazol‐4‐yl]methylamine] |  |  |  | Tb Ino1 Tm Shift [˚C] [1, 6]: 0.41 ± 0.06 °C; HeLa Cells Alamar Blue [2]: 71.9 ± 7.1 percentage of controls; A549 Cells Alamar Blue [3]: 98.4 percentage of controls |
| O=c1c2ccccc2oc2ncccc12 [compound 600, 5H‐chromeno[2,3‐b]pyridin‐5‐one] | 0.62 ± 0.05 | 78.4 ± 11 | 126 |  |
| Nc1cccc(C(=O)c2ccccc2)c1 [compound 601, (3‐aminophenyl)(phenyl)methanone] | 0.21 ± 0.06 | 89.2 ± 6.6 | 63.8 |  |
| O=C(O)c1nsc(Cl)c1Cl [compound 602, 4,5‐dichloroisothiazole‐3‐carboxylic acid] | 0.1 ± 0.07 | 83.2 ± 12.5 | 68.2 |  |
| O=C(Nc1ccncc1)c1ccccc1 [compound 603, N1‐(4‐pyridyl)benzamide] | 0.32 ± 0.07 | 79 ± 15.1 | 57.3 |  |
| CC(=O)c1ccc(S(C)(=O)=O)cc1 [compound 604, 1‐[4‐(methylsulfonyl)phenyl]ethan‐1‐one] | 0.18 ± 0.06 | 83.1 ± 19.6 | 63.9 |  |
| CNCc1cccc(-c2ccncc2)c1 [compound 605, N‐methyl‐N‐(3‐pyridin‐4‐ylbenzyl)amine] | 0.05 ± 0.07 | 21.3 ± 13.8 | 36.2 |  |
| CNCc1cccc(-c2cccnc2)c1 [compound 606, N‐methyl‐N‐(3‐pyridin‐3‐ylbenzyl)amine] | 0.07 ± 0.08 | 70.8 ± 5.8 | 69.8 |  |
| CNCc1ccc(-c2ccccn2)cc1 [compound 607, N‐methyl‐N‐(4‐pyridin‐2‐ylbenzyl)amine] | 0.02 ± 0.06 | 57.7 ± 17.1 | 71.5 |  |
| O=C1CCSc2ccc(Cl)cc21 [compound 609, 6-chloro-3,4-dihydro-2H-1-benzothiin-4-one] |  | 74.5 ± 13.7 | 105 | ΔTm at 1000 µM ([1]; read-out: TbIno1 Tm shift [°C]): 2.49 ± 0.04 °C; viability at 500 µM [2, 7]: 74.5 ± 13.7% |
| O=C(O)c1ccc(-c2ccccc2)nc1 [compound 610, 6‐phenylnicotinic acid] | 0.46 ± 0.06 | 82.3 ± 8.2 | 125 |  |
